Laboratory results as given in US4339379A, “N-Acrylcarnosine aluminum salts” (Nippon Chemiphar Co., Ltd., priority 1979, dated 1982).
Values joined by “and” are separate entries in the source; they are usually repeats but may differ in a detail not shown here. Equal entries are not always repeated.

What was measured:
[1] = system: Indomethacin-induced ulcer; assay: Indomethacin-induced ulcer in rats; assay type: in vivo, male Donryu strain rats; settings: for Ulcer index: Indomethacin (25 mg/kg s.c.)-induced ulcer, 300 mg/kg P.O. ten minutes before pylorus ligation, total length of lesions
Procedure: Indomethacin-induced ulcer: Groups of ten male Donryu strain rats each weighing 200 to 215 g were deprived of food for 24 hours. Then, the pylorus was ligated under ether anethesia, after which indomethacin was administered subcutaneously in an amount of 25 mg/kg to each rat. Seven hours after the administration, each of the animals was sacrificed under ether anethesia to remove its stomach, followed by immersion in a 1% formalin solution for ten minutes. The stomach which had been semi-fixed was incised along its greater curvature, and the length (mm) of each lesion formed in the mucous membrane was measured under a dissecting microscope (10×). The total length (mm) of all the lesions of each rat was indicated as an ulcer index. Test medicine samples were given orally ten minutes before the pylorus legation.

Shay's ulcer = Shay's ulcer (pylorus ligation) in rats; assay type: in vivo, male Donryu strain rats; settings: for Ulcer index: total ulcerated area in forestomach
Procedure: Shay's ulcer: Groups of ten male Donryu strain rats each weighing 210 to 230 g were deprived of food for 48 hours. The pylorus of each rat was ligated according to the method of Shay et al [Gastroenterology, 5, 43-61 (1945)]. Each of the animals was allowed to stand abstained from food and water for further 14 hours and then sacrificed to remove its stomach. After collection of the gastric juice, the ulcerated area (mm^2) in the forestomach of each rat was measured under a dissecting microscope (10×). The total area (mm^2) of all the lesions of each rat was indicated as an ulcer index. Test medicine samples were given orally immediately after the pylorus ligation.

[2] = Indomethacin-induced ulcer, 300 mg/kg P.O.
[3] = rats, 1,000 mg/kg P.O. immediately after pylorus ligation

NCCC(=O)N[C@@H](Cc1cnc[nH]1)C(=O)O [L-Carnosine, L-carnosine]
Ulcer index [1]: 17.1 ± 3.1 mm
% Inhibition [1, 2]: ~ 0%

NC(=O)CC[C@H](N)C(=O)O [L-Glutamine, L-glutamine]
Ulcer index [1]: 9.7 ± 3.9 mm
inhibition at 300 mg/kg ([1]; Rattus norvegicus, po, Indomethacin-induced ulcer, 300 mg/kg P.O.): 42.3%

CC(=O)N[C@@H](CCC(N)=O)C(=O)O.[Al] [N-Acetyl-L-glutamine aluminum, N-acetyl-L-glutamine aluminum]
inhibition at 2000 mg/kg (Shay's ulcer; Rattus norvegicus, po, rats, 2,000 mg/kg P.O.): 69%
% Inhibition (Shay's ulcer; rats, 2,000 mg/kg P.O.): 67.7%
Ulcer index (Shay's ulcer; rats, 2,000 mg/kg P.O. immediately after pylorus ligation): 0.9 ± 0.7 mm^2 and 1.0 ± 0.6 mm^2

N-acetyl-DL-carnosine aluminum salt
% Inhibition (Shay's ulcer; rats, 1,000 mg/kg P.O.): 75.9%
Ulcer index (Shay's ulcer; [3]): 0.7 ± 0.8 mm^2
Ulcer index [1]: 6.7 ± 3.0 mm
% Inhibition [1, 2]: 60.1%

N-acetyl-L-carnosine aluminum salt [B]
% Inhibition (Shay's ulcer; rats, 1,000 mg/kg P.O.): 72.4%
Ulcer index (Shay's ulcer; [3]): 0.8 ± 0.6 mm^2
Ulcer index [1]: 6.5 ± 2.5 mm
% Inhibition [1, 2]: 61.3%

N-propionyl-L-carnosine aluminum salt
% Inhibition (Shay's ulcer; rats, 1,000 mg/kg P.O.): 74.2%
Ulcer index (Shay's ulcer; [3]): 0.8 ± 0.8 mm^2

aluminum sucrose sulfate
% Inhibition (Shay's ulcer; rats, 1,000 mg/kg P.O.): 72.4% and 71.0%
Ulcer index (Shay's ulcer; [3]): 0.8 ± 0.6 mm^2 and 0.9 ± 0.5 mm^2
Ulcer index [1]: 7.4 ± 2.8 mm
% Inhibition [1, 2]: 56.0%
